From publication PMC3684244 (Harmful algae, 2013)
“And” between values parts separate entries of the source, which are not always exact repeats. Equal values may be shown once.

Experiments:
[1] = test system: brevenal site on voltage-sensitive sodium channels (VSSCs), rat brain synaptosomes; type: binding
[2] = biological target: site 5 on voltage-sensitive sodium channels (VSSCs), rat brain synaptosomes; settings: read-out: Ki for inhibition of [^3H]-PbTx-3 binding
[3] = test system: site 5 on voltage-sensitive sodium channels (VSSCs), rat brain synaptosomes; settings: cited from earlier work

Row | SMILES | Inhibition of [^3H]-brevenol binding (maximum concentration tested) [1] | other results
1 | N=C(N)NC(=O)c1nc(Cl)c(N)nc1N [Amiloride] | No displacement (10 ! M) | –
2 | C=C/C=C\CC[C@H]1O[C@H]2CC[C@@]3(C)O[C@H]4[C@@H](O)C[C@@]5(C)O[C@@H](CC/C=C(C)/C(C)=C/C=O)[C@@H](C)C[C@H]5O[C@@H]4C[C@@H]3O[C@@H]2CC[C@@]1(C)O [Brevenal, brevenal] | – | Ki [2]: 98 nM; Ki ([1]; read-out: Ki for inhibition of [^3H]-brevenol binding): 75 nM and 74.8 nM; Affinity for inhibiting brevetoxin binding relative to brevetoxins (fold lower) [3]: approximately 100 fold
3 | CC1(C)[C@H](C(=O)O[C@H](C#N)c2cccc(Oc3ccccc3)c2)[C@@H]1C=C(Br)Br [Deltamethrin] | No displacement (100 ! M) | –
4 | NC1=N[C@H](O)[C@H]2[C@H]3O[C@]4(O)O[C@@H]([C@@H](O)[C@@]2(N1)[C@@H]4O)[C@]3(O)CO [Tetrodotoxin] | No displacement (10 ! M) | –
5 | COc1ccc(C(=O)O[C@H]2CC[C@@]3(C)[C@@H]4CC[C@H]5[C@]6(O)C[C@H](O)[C@@]7(O)[C@@H](CN8C[C@@H](C)CC[C@H]8[C@@]7(C)O)[C@]6(O)C[C@@]53O[C@]24O)cc1OC [Veratridine] | No displacement (10 ! M) | –
6 | CCN1C[C@]2(COC)[C@H](O)C[C@H](OC)[C@@]34[C@@H]5C[C@@]6(O)[C@H](OC(=O)c7ccccc7)[C@@H]5[C@@](OC(C)=O)([C@@H]([C@H](OC)[C@H]23)[C@@H]14)[C@@H](O)[C@@H]6OC [aconitine] | No displacement (10 ! M) | –
